Data: the supplement of paper PMC11061612

Legend:
Experiment in all cases: combination Emax (second highest fraction inhibited in the dose matrix, 72 h); higher = more inhibition; extreme values may be limits of the assay
[1] = tested on: KURAMOCHI (Ovarian Carcinoma)
Procedure, shortened: (§1)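 Cell lines grown in DMEM/F12 or RPMI with 10% FBS were plated in 1536-well plates and held 24 hours at 37°C, 5% CO2 before 72 hours of exposure to two-drug dose matrices, with DMSO typically at 0.2%. CellTiter-Glo 2.0 luminescence gave viability, which was converted to inhibition. Vehicle wells were set to 0 and blank wells to 1. Combination Emax is the second-highest inhibition in the matrix, and Bliss excess is the observed combination effect minus the expected EA + EB − EA·EB, where EA and EB are the single-agent effects.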

[2] = tested on: HCC-78 (Lung Adenocarcinoma)
Procedure, shortened: as §1

[3] = tested on: NCI-H82 (Small Cell Lung Carcinoma)
Procedure, shortened: as §1

[4] = tested on: Ramos-2G6-4C10 (Burkitt's Lymphoma)
Procedure, shortened: as §1

T98G (Glioblastoma) = tested on: T98G (Glioblastoma)
Procedure, shortened: as §1

[5] = tested on: CaR-1 (Colorectal Carcinoma)
Procedure, shortened: as §1

[6] = tested on: DoTc2-4510 (Cervical Carcinoma)
Procedure, shortened: as §1

[7] = tested on: CAL-148 (Breast Carcinoma)
Procedure, shortened: as §1

[8] = tested on: UM-UC-3 (Bladder Carcinoma)
Procedure, shortened: as §1

[9] = tested on: NCI-H2085 (Non-Small Cell Lung Carcinoma)
Procedure, shortened: as §1

NB10 (Neuroblastoma) = tested on: NB10 (Neuroblastoma)
Procedure, shortened: as §1

[10] = tested on: TE-9 (Esophageal Squamous Cell Carcinoma)
Procedure, shortened: as §1

[11] = tested on: ME-1 (Acute Myeloid Leukemia)
Procedure, shortened: as §1

[12] = tested on: CCRF-CEM (T-Lymphoblastic Leukemia)
Procedure, shortened: as §1

[13] = tested on: HT-1376 (Bladder Carcinoma)
Procedure, shortened: as §1

[14] = tested on: Hs-578-T (Breast Carcinoma)
Procedure, shortened: as §1

[15] = tested on: HO-1-N-1 (Oral Cavity Carcinoma)
Procedure, shortened: as §1

KELLY (Neuroblastoma) = tested on: KELLY (Neuroblastoma)
Procedure, shortened: as §1

[16] = tested on: Calu-3 (Lung Adenocarcinoma)
Procedure, shortened: as §1

[17] = tested on: TE-15 (Esophageal Squamous Cell Carcinoma)
Procedure, shortened: as §1

SMILES: O=C(c1cc(Cc2n[nH]c(=O)c3ccccc23)ccc1F)N1CCN(C(=O)C2CC2)CC1 [Olaparib] + COc1nnc2ccc(N3CCC(c4ccc(OCCN5CCN(C)C(=O)[C@H]5C)cc4)CC3)nn12 [AZD5153] (first compound max 10 µM, 7x7, partner max 1 µM)
- combination Emax [1]: 0.772
- combination Emax [2]: 0.325
- combination Emax [3]: 0.535
- combination Emax [4]: 0.611
- combination Emax (T98G (Glioblastoma)): 0.408
- combination Emax [5]: 0.277
- combination Emax [6]: 0.263
- combination Emax [7]: 0.73
- combination Emax [8]: 0.359
- combination Emax [9]: 0.383
- combination Emax (NB10 (Neuroblastoma)): 0.406
- combination Emax [10]: 0.189
- combination Emax [11]: 0.403
- combination Emax [12]: 0.714
- combination Emax [13]: 0.0928
- combination Emax [14]: 0.729
- combination Emax [15]: 0.604
- combination Emax (KELLY (Neuroblastoma)): 0.397
- combination Emax [16]: 0.516
- combination Emax [17]: 0.516

SMILES: O=C(c1cc(Cc2n[nH]c(=O)c3ccccc23)ccc1F)N1CCN(C(=O)C2CC2)CC1 [Olaparib] + Cc1c2c(nn1C)CSCc1cc(n(C)n1)CSc1cc(c3ccccc3c1)OCCCc1c(C(=O)O)n(C)c3c-2c(Cl)ccc13 [AZD5991] (first compound max 10 µM, 7x7, partner max 1 µM)
- combination Emax [1]: 0.28
- combination Emax [2]: 0.13
- combination Emax [3]: 0.899
- combination Emax [4]: 0.978
- combination Emax (T98G (Glioblastoma)): 0.223
- combination Emax [5]: 0.13
- combination Emax [6]: 0.224
- combination Emax [7]: 0.635
- combination Emax [8]: 0.0695
- combination Emax [9]: 0.0831
- combination Emax (NB10 (Neuroblastoma)): 0.437
- combination Emax [10]: 0.202
- combination Emax [11]: 0.551
- combination Emax [12]: 0.271
- combination Emax [13]: 0.0928
- combination Emax [14]: 0.489
- combination Emax [15]: 0.78
- combination Emax (KELLY (Neuroblastoma)): 0.934
- combination Emax [16]: 0.0927
- combination Emax [17]: 0.29

SMILES: N#Cc1cnc(Nc2cc(NC[C@H]3CNCCO3)c(C(F)(F)F)cn2)cn1 [SRA737] + C=CCn1c(=O)c2cnc(Nc3ccc(N4CCN(C)CC4)cc3)nc2n1-c1cccc(C(C)(C)O)n1 [AZD1775] (first compound max 10 µM, partner max 1 µM)
- combination Emax [1]: 0.717
- combination Emax [2]: 0.714
- combination Emax [3]: 0.985
- combination Emax [4]: 1
- combination Emax (T98G (Glioblastoma)): 0.9
- combination Emax [5]: 0.408
- combination Emax [6]: 0.725
- combination Emax [7]: 0.969
- combination Emax [8]: 0.471
- combination Emax [9]: 0.882
- combination Emax (NB10 (Neuroblastoma)): 0.84
- combination Emax [10]: 0.7
- combination Emax [11]: 0.566
- combination Emax [12]: 0.995
- combination Emax [13]: 0.387
- combination Emax [14]: 0.783
- combination Emax [15]: 0.666
- combination Emax (KELLY (Neuroblastoma)): 1
- combination Emax [16]: 0.495
- combination Emax [17]: 0.821

SMILES: N#Cc1cnc(Nc2cc(NC[C@H]3CNCCO3)c(C(F)(F)F)cn2)cn1 [SRA737] + CCc1c2c(nc3ccc(O)cc13)-c1cc3c(c(=O)n1C2)COC(=O)[C@]3(O)CC [SN-38] (first compound max 10 µM, 7x7, partner max 0.3 µM)
- combination Emax [1]: 0.9
- combination Emax [2]: 0.959
- combination Emax [3]: 0.967
- combination Emax [4]: 1
- combination Emax (T98G (Glioblastoma)): 0.921
- combination Emax [5]: 0.791
- combination Emax [6]: 0.936
- combination Emax [7]: 0.907
- combination Emax [8]: 0.967
- combination Emax [9]: 0.665
- combination Emax (NB10 (Neuroblastoma)): 0.769
- combination Emax [10]: 0.589
- combination Emax [11]: 0.675
- combination Emax [12]: 1
- combination Emax [13]: 0.566
- combination Emax [14]: 0.804
- combination Emax [15]: 0.975
- combination Emax (KELLY (Neuroblastoma)): 1
- combination Emax [16]: 0.674
- combination Emax [17]: 0.931

SMILES: N#Cc1cnc(Nc2cc(NC[C@H]3CNCCO3)c(C(F)(F)F)cn2)cn1 [SRA737] + Nc1ccn([C@@H]2O[C@H](CO)[C@@H](O)C2(F)F)c(=O)n1 [Gemcitabine] (first compound max 10 µM, 7x7, partner max 0.3 µM)
- combination Emax [1]: 0.673
- combination Emax [2]: 0.906
- combination Emax [3]: 0.978
- combination Emax [4]: 0.976
- combination Emax (T98G (Glioblastoma)): 0.825
- combination Emax [5]: 0.67
- combination Emax [6]: 0.803
- combination Emax [7]: 0.845
- combination Emax [8]: 0.966
- combination Emax [9]: 0.595
- combination Emax (NB10 (Neuroblastoma)): 0.946
- combination Emax [10]: 0.52
- combination Emax [11]: 0.66
- combination Emax [12]: 1
- combination Emax [13]: 0.442
- combination Emax [14]: 0.837
- combination Emax [15]: 1
- combination Emax (KELLY (Neuroblastoma)): 1
- combination Emax [16]: 0.67
- combination Emax [17]: 0.923

SMILES: N#Cc1cnc(Nc2cc(NC[C@H]3CNCCO3)c(C(F)(F)F)cn2)cn1 [SRA737] + O=c1[nH]cc(F)c(=O)[nH]1 [5-Fluorouracil] (first compound max 10 µM, 7x7, partner max 20 µM)
- combination Emax [1]: 0.606
- combination Emax [2]: 0.819
- combination Emax [3]: 0.816
- combination Emax [4]: 0.84
- combination Emax (T98G (Glioblastoma)): 0.837
- combination Emax [5]: 0.229
- combination Emax [6]: 0.231
- combination Emax [7]: 0.497
- combination Emax [8]: 0.208
- combination Emax [9]: 0.501
- combination Emax (NB10 (Neuroblastoma)): 0.53
- combination Emax [10]: 0.469
- combination Emax [11]: 0.471
- combination Emax [12]: 0.99
- combination Emax [13]: 0.175
- combination Emax [14]: 0.612
- combination Emax [15]: 0.473
- combination Emax (KELLY (Neuroblastoma)): 1
- combination Emax [16]: 0.213
- combination Emax [17]: 0.705

SMILES: Cc1nc(-c2cn3c(n2)-c2ccc(-c4cnn(C(C)(C)C(N)=O)c4)cc2OCC3)n(C(C)C)n1 [Taselisib] + O=C(Nc1ccc2[nH]nc(-c3ccncc3)c2c1)[C@@H]1CCN(CC(=O)N2CCN(c3ccc(-c4ncccn4)cc3)CC2)C1 [SCH772984] (first compound max 10 µM, 7x7, partner max 5 µM)
- combination Emax [1]: 0.683
- combination Emax [2]: 0.664
- combination Emax [3]: 0.429
- combination Emax [4]: 0.163
- combination Emax (T98G (Glioblastoma)): 0.851
- combination Emax [5]: 0.872
- combination Emax [6]: 0.691
- combination Emax [7]: 0.964
- combination Emax [8]: 0.716
- combination Emax [9]: 0.603
- combination Emax (NB10 (Neuroblastoma)): 0.791
- combination Emax [10]: 0.691
- combination Emax [11]: 0.272
- combination Emax [12]: 0.611
- combination Emax [13]: 0.227
- combination Emax [14]: 0.89
- combination Emax [15]: 0.999
- combination Emax (KELLY (Neuroblastoma)): 0.635
- combination Emax [16]: 0.855
- combination Emax [17]: 0.832

SMILES: CC1(C)CCC(CN2CCN(c3ccc(C(=O)NS(=O)(=O)c4ccc(NCC5CCOCC5)c([N+](=O)[O-])c4)c(Oc4cnc5[nH]ccc5c4)c3)CC2)=C(c2ccc(Cl)cc2)C1 [Venetoclax] + CS(=O)(=O)CCNCc1ccc(-c2ccc3ncnc(Nc4ccc(OCc5cccc(F)c5)c(Cl)c4)c3c2)o1 [Lapatinib] (first compound max 1 µM, 7x7, partner max 10 µM)
- combination Emax [1]: 0.341
- combination Emax [2]: 0.143
- combination Emax [3]: 0.279
- combination Emax [4]: 0.241
- combination Emax (T98G (Glioblastoma)): 0.179
- combination Emax [5]: 0.308
- combination Emax [6]: 0.522
- combination Emax [7]: 0.235
- combination Emax [8]: 0.104
- combination Emax [9]: 0.244
- combination Emax (NB10 (Neuroblastoma)): 0.0761
- combination Emax [10]: 0.189
- combination Emax [11]: 1
- combination Emax [12]: 0.501
- combination Emax [13]: 0.194
- combination Emax [14]: 0.554
- combination Emax [15]: 0.668
- combination Emax (KELLY (Neuroblastoma)): 0.947
- combination Emax [16]: 0.74
- combination Emax [17]: 0.742
